Literature values as cited in patent US9145400B2, “Process for the preparation of form III of vilazodone hydrochloride” (Sandoz AG, priority 2013, dated 2015).
Like-named read-outs stand apart in the source and are kept apart here.

Experiments:
[1] = at room temperature
[2] = DVS, humidity of about 90%; takes up water only in minimal amounts; per WO 02/102794

For `Cl.N#Cc1ccc2[nH]cc(CCCCN3CCN(c4ccc5oc(C(N)=O)cc5c4)CC3)c2c1` [form III of Vilazodone hydrochloride, 5-(4-[4-(5-cyano-1H-indol-3-yl)butyl]piperazin-1-yl)benzofuran-2-carboxamide hydrochloride], the “thermodynamic stability among polymorphs” value ([1]; per WO 02/102794 page 20, lines 23-26 and FIG. 27, listed as Vilazodone hydrochloride crystalline form III) is given as “thermodynamically most stable form”, the “thermodynamic stability among polymorphs” value ([1]; per WO 02/102794 page 20, lines 23-26 and FIG. 27, hydrochloride) is given as “most thermodynamically stable polymorph” and the “hygroscopicity (water uptake)” value [2] is given as “non-hygroscopic”.
